Patent publication US20150209364A1, “METHOD FOR TREATING EPIDERMOID CARCINOMA” (Johnpro Biotech Inc., priority 2011, published 2015)
pIC50: −log10 of the molar value.

System: erlotinib-resistant H1975 cells
Test: cells
Type: cell-based
Details: Homo sapiens, NCI-H1975, 72 h, read-out: IC50 (cell viability)
Experimental: The cells were plated at 5×10^4/ml in 100 μL of culture medium in a 96-well microtiter plate, followed by incubation with drugs. Cell viability after the treatment was determined using 3-(4,5-dimethylthiazol-2-yl)-5(3-carboxymethoxy-phenyl)-2-(4-sulfophenyl)-2H-tetrazolium (MTS) assay (Promega, Madison, Wis.) per the manufacturer's instruction. Absorbance was measured at 490 nm for MTS assay with an enzyme-linked immunosorbent assay plate reader from MTX Lab Systems, Inc. (Vienna, Va.). […] Each experiment was performed in triplicate, and the results were expressed as mean±SD.

## CCN(CC)CCCC(C)Nc1ccnc2cc(Cl)ccc12 (stereo not shown) [chloroquine]
  pIC50: 4.12
